Assay results as given in patent US11986522B2, “Immunotherapeutic composition and uses thereof” (ARAVAX PTY LTD, priority 2013, dated 2024).
“Also recorded” adds a separate entry of the source. No end group written: not given here.

What was measured:
[1] = system: HLA-DRB1, -DQB1 and -DPB1; test: HLA-genotyping of subjects whose TCL recognise the epitopes; design: species or system human; settings: for HLA-binding degeneracy (presented by): no shared allele between responding subjects; for HLA allele presenting the epitope / present in all recognising subjects: HLA-typed subjects
[2] = system: HLA-DR, HLA-DQ, HLA-DP; test: HLA class II blocking assays (anti-HLA mAb, TCL proliferation); type: cell-based, human; settings: for antibody that blocked T cell recognition of the epitope: Ara h 2 epitopes
Experimental: Materials and Methods Subjects: Peanut-allergic adult subjects were recruited from The Alfred Allergy Clinic, Melbourne, Australia. […] Some subjects were genotyped (HLA-DRB1, -DQB1 and -DPB1, exon 2) by the Victorian Transplantation and Immunogenetics Service. The study was approved by The Alfred and Monash University Ethics Committees and informed written consent obtained from each subject. Antigens: Crude peanut extract (CPE) was prepared from commercial unsalted, dry-roasted peanuts as described elsewhere, (de Leon et al. Clin Exp Allergy. 2003; 33(9):1273-80) dialyzed against phosphate-buffered saline (PBS) and filter-sterilized (0.2 μm). Natural Ara h 1 and Ara h 2 were enriched from CPE based on published methodology. (de Jong E C et al. Clin Exp Allergy. 1998; 28(6):743-51) Briefly, CPE was buffer exchanged into 20 mM TRIS-bis-propane (TBP), pH 7.2, using Vivaspin columns (Sartorius Stedim Biotech S.A., Aubagne, France) and applied onto a 5 mL Mono-Q 10/10 column (Pharmacia FPLC System, St Albans, UK) equilibrated with TBP. After washing with TBP, a linear gradient of 30 mL 0-1 M NaCl/TBP was applied to elute bound proteins (1 mL/min). Fractions, 0.5 mL, were analyzed by SDS-PAGE and those containing Ara h 1 or Ara h 2 with minimal other proteins pooled and dialyzed against PBS. Endotoxin contents were 1.7, 4.0 and 78.0 EU/mg for CPE, Ara h 1 and Ara h 2 respectively (Endpoint Chromogenic LAL assay, Lonza, Walkersville, USA). Peptides (Mimotopes, Victoria, Australia and GenScript USA Inc, New Jersey, USA) were reconstituted at 1-4 mg/ml in 10% dimethyl sulfoxide/PBS (20-mers and truncated peptide sets) or PBS, 1-2% acetic acid or 0.1M ammonium bicarbonate buffers as specified (custom-synthesized core epitope peptides). All antigens were confirmed to be neither mitogenic nor toxic as described (Eusebius N P et al., Int Arch Allergy Immunol. 2002; 127(3):234-44). Generation of Ara h 1 and Ara h 2-specific CD4+ T-cell lines (TCL): Ara h 1 or Ara h 2-specific oligoclonal TCL were generated from peripheral blood mononuclear cells (PBMC) of peanut-allergic subjects using 5,6-carboxyfluorescein diacetate succinimidylester (CFSE)-based methodology. (Mannering S I et al., J Immunol Methods. 2005; 298(1-2):83-92; Prickett S R, et al., J Allergy Clin Immunol. 2011; 127(3):608-15 el-5). Briefly, culturing was performed in RPMI-1640 containing 2 mM L-glutamine, 100 IU/mL penicillin-streptomycin and 5% human AB serum (Sigma-Aldrich, St Louis, USA) (cRPMI). PBMC were labelled with 0.1 μM CFSE (Molecular Probes, Eugene, USA) and cultured (2.5×10^6/mL) with cRPMI alone, CPE (100 μg/mL), Ara h 1 or Ara h 2 (10 μg/mL), Ara h 1 or Ara h 2 20-mer-peptide pools (10 μg/mL/peptide) or as a control, tetanus toxoid (TT; 10 LfU/mL; Statens Serum Institute, Copenhagen, Denmark) for 7 days at 37° C. After staining with CD4-PE and 7AAD (BD Pharmingen, San Diego, USA), CD4+CFSEdim7AAD-cells were sorted (10 cells/well) into 96-U-well plates containing irradiated allogeneic feeder-cells, anti-CD3 (OKT-3), rIL-2 (Cetus, Emeryville, USA) and Fungizone (Invitrogen, Carlsbad, USA) as described. Cells were fed with rIL-2 as required and after 10-14 days, transferred to 48-well plates and tested for proliferation to Ara h 1 or Ara h 2 (10 μg/mL). Ara h 1 or Ara h 2-positive TCL were expanded with anti-CD3 and rIL-2 in T25 culture flasks (BD, Franklin Lakes, USA) for 10-12 days then tested for specificity (proliferation) to overlapping 20-mer peptides spanning the respective sequence (10 μg/mL). Core epitope sequences were mapped within selected 20-mers using peptide sets truncated from the N- or C-terminus of the 20-mer as described (Prickett S R, et alc. J Allergy Clin Immunol. 2011; 127(3):608-15 el-5). T-cell assays:All culturing was performed in RPMI-1640 containing 2 mM L-glutamine, 100 IU/mL penicillin-streptomycin and 5% heat-inactivated human AB serum (Sigma-Aldrich, St Louis, USA) (cRPMI). […]

[3] = system: PBMC CD4+ T cells of peanut-allergic subjects; test: 7-day CFSE assay of peptide-induced CD4+ T-cell proliferation/activation within whole PBMC; type: cell-based, human; settings: screen of 25 new subjects
[4] = Peptide solubility in buffers; type: physicochemical
[5] = system: specific IgE; settings: cited from earlier work
[6] = Table 4, dominant core T cell epitopes

With RELRNLPQQCGLRA [15 core] the “HLA-binding degeneracy (presented by)” value [1] was “multiple HLA-DRB1 molecules” and the “antibody that blocked T cell recognition of the epitope” value [2] was “anti-HLA-DR”.

For WSTRSSENNEGVIVKVSKE [40 core], the HLA-restriction [2, 6] was “HLA-DQ” and the HLA-restriction ([2]; Table 7, 10 candidate peptides) was “HLA-DQ”.

In the case of ANLRPCEQHLM [4/5 core], the “HLA-DR molecules presenting the epitope” value [1] is reported as “at least 2”, the “HLA allele presenting the epitope / present in all recognising subjects” value [1] is reported as “HLA-DQB1*06:09” and the “HLA-binding degeneracy (presented by)” value [1] is reported as “multiple HLA-DRB1 molecules”. The “antibody that blocked T cell recognition of the epitope” value [2] was “anti-HLA-DR” and the HLA-restriction [2, 6] was “HLA-DR; also recorded: HLA-DQ”.

For EFENNQRSMSEALQ [Peptide 23], the “T cell responses compared with longer version containing an additional epitope” value [3] was “Induced equivalent T cell”.

With ANLRPSEQHLM [Peptide 21] the “T cell responses compared with longer version containing an additional epitope” value [3] was “Induced equivalent T cell”.

For “VEIKEGALMLPHFNSKA (listed as Arachis hypogaea) [Peptide 4]”, the HLA-restriction [2, 6] was “HLA-DQ” and the HLA-restriction ([2]; Table 7, 10 candidate peptides) was “HLA-DQ”.

For “NNFGKLFEVKPDKKNPQLQ (listed as Arachis hypogaea) [46 + 47 core]”, the HLA-restriction ([2]; Table 7, 10 candidate peptides) was “HLA-DR”.

In the case of “GDVFIMPAAHPVAINASS (listed as Arachis hypogaea) [57 core]”, the HLA-restriction [2, 6] is reported as “HLA-DR; also recorded: HLA-DQ” and the HLA-restriction ([2]; Table 7, 10 candidate peptides) is reported as “HLA-DR; also recorded: HLA-DQ”.

With ELNEFENNQRSMSEALQ [10 + 10/11 core] the HLA-restriction ([2]; Table 7, 10 candidate peptides) was “HLA-DR; also recorded: or -DQ”.

In the case of “FQNLQNHRIVQIEAKPNTLV (listed as Arachis hypogaea) [Peptide 1]”, the HLA-restriction ([2]; Table 7, 10 candidate peptides) is reported as “HLA-DR”.

In the case of KAMVIVVVNKGTGNLELVAV [51 ‘core’], the HLA-restriction [2, 6] is reported as “HLA-DR” and the HLA-restriction ([2]; Table 7, 10 candidate peptides) is reported as “HLA-DR”.

For “GDVFIMPAAHPVAINASSE [Peptide 7, GDVFIMPAAHPVAINASSE]”, the “solubility of the version without the added C-terminal ‘E’” value [4] was “insoluble except in toxic buffers” and the “solubility in PBS, 0.1M NH4HCO3, or 1-2% acetic acid” value ([4]; redesigned new version for peptide 7) was “soluble; peptide 7 in Table 7)”.

For “EVKPDKKNPQLQ (listed as Arachis hypogaea) [Peptide 15]”, the “T cell responses compared with longer version containing an additional epitope” value [3] was “Induced equivalent T cell” and the HLA-restriction [2, 6] was “HLA-DR”.

For ELNEFENNQRCM [10 core], the HLA-restriction [2, 6] was “HLA-DR”.

With EFENNQRCMCEALQ [10/11 core] the “HLA allele presenting the epitope / present in all recognising subjects” value [1] was “DRB1*15:01”, the “HLA-binding degeneracy (presented by)” value [1] was “multiple HLA-DQB1 molecules” and the HLA-restriction [2, 6] was “HLA-DQ”.

For ALMLPHFNSKAMVIVVV [50 core], the HLA-restriction [2, 6] was “HLA-DR” and the HLA-restriction ([2]; Table 7, 10 candidate peptides) was “HLA-DR”.

With “RIVQIEAKPNTLV (listed as Arachis hypogaea) [24 core]” the HLA-restriction [2, 6] was “HLA-DR”.

In the case of “KAMVIVVVNKG (KAMVIVVVNKGTGNLELVAVD; listed as Arachis hypogaea) [50/51 core]”, the HLA-restriction [2, 6] is reported as “HLA-DR”.

With “FQNLQNHRIV (listed as Arachis hypogaea) [23 core]” the HLA-restriction [2, 6] was “HLA-DR”.

In the case of NNFGKLFEVKPDKKNPQ [46 core], the HLA-restriction [2, 6] is reported as “HLA-DR”.

In the case of SQLERANLRPCEQ [4 core], the “HLA allele presenting the epitope / present in all recognising subjects” value [1] is reported as “DPB1*04:01”, the “antibody that blocked T cell recognition of the epitope” value [2] is reported as “anti-HLA-DP” and the HLA-restriction [2, 6] is reported as “HLA-DP”.

B1: Ara h 2: major peanut allergen, glycoprotein of the conglutin seed storage family (protein, listed as Arachis hypogaea)
chain: LTILVALALFLLAAHASARQQWELQGDRRCQSQLERANLRPCEQHLMQKIQRDEDSYERDPYSPSQDPYSPSPYDRRGAGSSQHQERCCNELNEFENNQRCMCEALQQIMENQSDRLQGRQQEQQFKRELRNLPQQCGLRAPQRCDLDVESGGRDRY
For B1, the “sera reactive with Ara h 2” value ([5]; Burks et al, 1992) is given as 6 out of 6, the “subjects with specific IgE to purified natural Ara h 2” value ([5]; de Jong's group) is given as “approximately 78%” and the “subjects possessing specific IgE to Ara h 2” value ([5]; western blotting of crude peanut extract, Clarke) is given as 71%. The “subjects possessing IgE towards recombinant form” value ([5]; western blotting, Kleber-Janke et al.) was 85%.
